# Results reported in patent publication US20140242599A1, “MATERIALS AND METHODS FOR DETERMINING SENSITIVITY POTENTIAL OF COMPOUNDS” (ELECTROPHORETICS LIMITED, priority 2011, published 2014).
# What was measured:
# [1] = tested on: Aldo-keto reductase family 1, member C2 (AKR1C2); test: Western Blot quantification of AKR1C2 in keratinocyte cell extracts; assay type: cell-based; conditions: primary human keratinocytes, 24 h exposure, FIG. 4
# Method: (§1) Primary human keratinocytes were obtained from Provitro (Berlin, Germany). Cells were seeded at 3×10E5 cells per 10 cm dish. Cells were grown in serum free supplemented keratinocyte growth medium (Provitro) to 80-90% density prior to treatment. Cells were grown at 37° C. in 5% CO2. Second and third passages post-cryopreserved seedings were used for experiments
# (§2) Test chemicals were added and the plates were incubated for 24 hours at 37° C. in a 5% CO2 humidified incubator. When a chemical was dissolved in DMSO, a final concentration of 0.1% DMSO was used in the relevant negative control. After 24 h incubation, cells were harvested and washed twice in PBS.
# Cells were lysed in four volumes of 100 mM TEAB (triethylammonium bicarbonate), pH 8.5+0.1, 1 mM TCEP (tris[2-carboxyethyl]phosphine*HCl), 0.1% SDS. After suspending the cell pellet in lysis buffer the suspension was heated at 95° C. for ten minutes in a thermomixer ([Eppendorf, Thermomixer comfort). […]
# (§3) As an alternative approach to find predictive markers for sensitizing potential we measured the concentration of biomarkers using commercially available immunoassays to measure the levels of three biomarkers. The three proteins to be measured by Western Blot or ELISA were selected on the basis of a review of literature references to biomarkers of stress toxicity pathways. […]
# [2] = mouse, in vivo; cited from earlier work
# [3] = tested on: Heat shock 70 kDa protein 1 (HSP70, HSPA1A; HSPA1B); test: HSP70-specific ELISA of keratinocyte cell extracts; assay type: cell-based; conditions: primary human keratinocytes, 24 h exposure, FIG. 3
# Nrf2 pathway = conditions: cited from earlier work
# [4] = tested on: Metallothionein-1G (MT1G); test: Western Blot quantification of MT1G in keratinocyte cell extracts; assay type: cell-based; conditions: primary human keratinocytes, 24 h exposure, FIG. 5
# Method: as §1, §2
# Cells were lysed in four volumes of 100 mM TEAB (triethylammonium bicarbonate), pH 8.5+0.1, 1 mM TCEP (tris[2-carboxyethyl]phosphine*HCl), 0.1% SDS. […]
# as §3
# . […] Effects of contact sensitizers and irritants on MT1G production was determined by Western Blot analysis using MT1G specific antibodies (clone UC1MT, Biozol, Eching, Germany). […]
# [5] = tested on: Primary human keratinocytes; test: TMT proteomic profiling of exposed keratinocytes, PLS score plot of 102 protein biomarkers; assay type: cell-based; conditions: second study, four donors, FIG. 2
# [6] = tested on: luciferase gene under the control of the ARE of the AKR1C2 gene in HaCaT keratinocytes; conditions: screen of 43 sensitizers and 24 non-sensitizers; cited from earlier work
Structure (SMILES),AKR1C2 induction (Western Blot) [1],LLNA EC3 (%) [2],LLNA outcome / sensitizer potency class [2],HSP70 induction (ELISA) [3],"reactivity of BDKs, NEHKs and THP-1 (Nrf2 pathway) (Nrf2 pathway)",MT1G induction (Western Blot) [4],relative distance from the centre of the PLS score plot (size of response) [5],KeratinoSens identification of sensitizer [6]
"O=CC=Cc1ccccc1 [CA, 3-phenyl-2-Propenal]",only induced in CA exposed samples,2.8%,(moderate),most strongly induced,–,–,–,–
"O=[N+]([O-])c1ccc(Cl)c([N+](=O)[O-])c1 [DNCB, 1-chloro-2,4-dinitrobenzene]",–,–,–,small,high reactivity,–,–,–
"CN(C)C(=S)SSC(=S)N(C)C [TMTD, Tetramethyl thiuram disulfide]",–,5.2%,(moderate),most strongly induced,–,most strongly induced,smaller distance to the centre of the plot,–
O=C(Oc1ccccc1)c1ccccc1 [phenyl benzoate],–,–,–,–,–,–,–,false negative
